A short description of one series: aqueous solubility. The series is classed as physicochemical. The following applies: in water.
A short description of series [1]: NMR detection of a defective blood-brain barrier in the region of a cranial abscess. The series is classed as in vivo. Conditions: NMR diagnosis; complex in the form of salts with good aqueous solubility; preferably 0.1-0.5 mmole/kg. An excerpt: In contrast to conventional X-ray diagnosis with radiopaque X-ray contrast media, in NMR diagnosis with paramagnetic contrast medium there is no linear dependence of the signal enhancement on the concentration used. […] For this reason, it was surprising that some pathological processes can be seen only after application of a strongly paramagnetic contrast medium, according to the invention, higher than the doses indicated in EP No. 71564 (which can be from 0.001 mmole/kg to 5 mmole/kg). […] For a dose greater than 0.1 mmole/kg, solutions of high concentrations up to 1 mole/l, preferably 0.25 to 0.75 mole/l, are necessary, since only in this way is the volume load reduced and handling of the injection solution assured.

For the compound `O=C([O-])CCCCCCCCCCNC(=O)CN(CCN(CCN(CC(=O)[O-])CC(=O)NCCCCCCCCCCC(=O)[O-])CC(=O)[O-])CC(=O)[O-].[Gd+3].[Na+].[Na+]` [Example 2, disodium salt of gadolinium(III) complex of 13,23-dioxo-15,18,21-tris(carboxymethyl)-12,15,18,21,24-pentaazapentatriacontanedioic acid], the aqueous solubility result in “aqueous solubility” is on record as “good aqueous solubility”.
Same read-out and setting: the result for `O=C([O-])CN(CCN(CC(=O)[O-])CC(=O)NCCCCCCCCCCC(=O)O)CCN(CC(=O)[O-])CC(=O)NCCCCCCCCCCC(=O)O.[Gd+3]` [Gadolinium(III) complex of 13,23-dioxo-15,18,21-tris(carboxymethyl)-12,15,18,21,24-pentaazapentatriacontanedioic acid] reads “insoluble in water”.
With `O=C([O-])CN(CCN(CC(=O)[O-])CC(=O)O)CCN(CC(=O)[O-])CC(=O)O.[Gd+3]` [gadolinium diethylenetriaminepentaacetic acid], the “dose at which a defective blood-brain barrier can be detected” value in series [1] was in the range of 0.05 to 2.5 mmol/kg.
The same measure, in the same setting: in the case of `O=C(O)CN(CC(=O)O)C1CCCCC1N(CC(=O)O)CC(=O)O.[Mn]` (stereo not shown) [manganese-1,2-cyclohexenediaminetetraacetic acid] it was 0.05 to 2.5 mmol/kg.

The values above are taken from patent US5021236A, “Method of enhancing NMR imaging using chelated paramagnetic ions bound to biomolecules” (Schering Aktiengesellschaft, priority 1981, dated 1991).
